System: MCF-10A
Experiment: Clonogenic survival assay
Type: cell-based, human
Description: Clonogenic survival was assessed by colony counting at 9 days. […] Viable cells were scored and enumerated by trypan blue exclusion at 7 days. Means with SD are shown (MCF-10A: n = 3, primary T cell 1: n = 2). […] Fold increases of SCE per chromosome compared with no treatment or 0.5 μM cisplatin are shown for each cell type. Approximately 50 metaphases were counted for each cell. Error bars depict the mean with SD. Asterisks designate statistical significance for unpaired t-test at P < 0.0001. C. […] One hundred metaphases were counted for each exposure. Fold increases of chromatid-type aberrations per chromosome compared with no treatment or 0.5 μM cisplatin are shown for each cell type. The y-axis is the number of total chromatid-type aberrations per chromosome for each metaphase counted. Error bars indicate mean with SEM. The P-values were calculated using unpaired t-test.
Human mammary epithelial cell lines used included non-tumorigenic diploid MCF-10A, HMEC-hTERT and tumorigenic MDA-MB-468 (basal) and MCF-7 (luminal). […] Blood samples were obtained from normal donor participants. The participants provided written informed consent to IRB protocol #95–054 approved by the Institutional Review Board at MSKCC. The original signed consent is then sent to the research participant’s medical record and a copy of the consent is given to the participant. The EBV-transformed B-lymphocyte cell line (EBV-BL) was generated by transformation of peripheral blood mononuclear cells (PBMC) with the B95.8 strain of EBV, as previously described. Primary T cells were generated from PBMC from two normal donors by non-specific activation with phytohemagglutinin and cultured in RPMI1640 and human serum AB for 4–14 days before use. E14 mES cell line was provided by M. Hooper, Brca1^-/- 236.44 mES cell line was provided by B. H. Koller, Brca2^lex1/lex2 mES cell line was provided by P. Hasty and Lexicon Genetics. E14 wild-type, Brca1^-/- 236.44, and Brca2^lex1/lex2 mES cell lines were cultured in standard ES media. Brca1^-/- 236.44 cells express a BRCA1 peptide deleted for sequences encoded by exon 11 [52], while Brca2^lex1/lex2 cells express a BRCA2 peptide deleted for the terminal exon 27 [53]. Olaparib was synthesized in the MSKCC Organic chemistry core facility. Veliparib and BSI-201 were purchased from Chemie Tek. The compounds were dissolved in DMSO and PBS. For clonogenic survival assays, MCF-10A (1000 cells), HMEC-hTERT (1000 cells), MDA-MB-468 (1500 cells) and mouse ES cell (2000 cells) were seeded, vehicle control or inhibitors were added at the indicated concentration 24 hours after seeding and changed every three days for continuous treatment. At 7–14 days, colonies were fixed with methanol and stained with Giemsa. For EBV-BL (6 × 10^6) and primary T cells (3.6 × 10^6) were continuously exposed to the indicated concentration of drug for 10 days at 0.6 × 10^6 cells/ml. Viable cells were scored by trypan blue exclusion.

O=C(c1cc(Cc2n[nH]c(=O)c3ccccc23)ccc1F)N1CCN(C(=O)C2CC2)CC1 [olaparib]
survival (mean ± SD) (1 μM): 95.7 ± 1.9%
IC50 (Homo sapiens, continuous exposure, clonogenic survival assay, read-out: IC50 (cell survival)): 4.7 µM

Reference: PMC4948780, “PARP Inhibitors in Clinical Use Induce Genomic Instability in Normal Human Cells” (PLoS ONE, 2016)
